Data on two compounds can be found in patent publication US8562586B2, “Devices and systems for local delivery of inotropic agents to the epicardium” (Massachusetts Institute of Technology, priority 2008, dated 2013).

Bounds are passed on as bounds.

Data set [1] is described as follows: Drug levels within the myocardium, tissue core from under the device, swine. In kind it is in vivo. Conditions: patch release compared with IV infusion at the same dosage, all tissue depths, FIG. 11. An excerpt: The heart was arrested with a large potassium IV bolus and removed. A core of tissue from under the device was taken for measurement of drug levels within the myocardium.

For another data set, the system named is Hannaford swine. In words: Hemodynamic measurements in anesthetized swine, epicardial patch vs pericardial catheter vs IV. Type of data set: in vivo. How it is done:
Hannaford swine (15-25 weeks old, 45-60 kg) were fasted overnight but given full access to water. Telazol (2 mg/kg IM at a ratio of zolazepam:tiletamine of 1:1) was given IM for sedation. Anesthesia was induced with inhaled isoflurane 2% prior to tracheal intubation (9.0 cuffed). A 22 gauge peripheral IV was inserted into an ear vein for drug administration and volume resuscitation (Ringer's lactate 4 ml/kg/hr). Anesthesia was maintained during surgical preparation with isoflurane 2% in oxygen. Respiratory rate was be fixed to 10 breaths per minute and the tidal volume adjusted between 6 and 10 ml/kg to maintain expired end-tidal carbon dioxide between 35 and 40 mmHg. Inhaled isoflurane was discontinued after surgical preparation, and balanced total intravenous anesthesia was initiated with pentobarbital (10 mg/kg/hr) and pancuronium (0.5 mcg/kg/hr) prior to experimentation.
Vascular access introducer sheaths (7 FR) were placed in a femoral vein, the right internal jugular vein and both femoral arteries using a Seldinger technique under ultrasound guidance. A balloon tipped pulmonary artery catheter was inserted through the right internal jugular venous sheath and into the pulmonary artery to allow measurement of central venous pressure (CVP), pulmonary artery pressures, and thermodilution cardiac output. Heparin 5000 units was given to keep activated clotting time above 250 seconds. A pig-tail Millar conductance catheter was advanced retrograde across the aortic valve from the right femoral arterial sheath, and allows instantaneous recordings of the pressure and volume within the left ventricle. Following midline sternotomy the pericardium was retracted. Excess Ringer's lactate solution was given to replace blood losses and maintain CVP greater than 8 mm Hg. Continuous hemodynamic measurements were taken including heart rate (HR), mean arterial pressure (MAP), central venous pressure (CVP), contractility (max dP/dt), systemic vascular resistance (SVR), stroke volume (SV), cardiac output (CO) and stroke work (SW).
A pericardial drug releasing platform was constructed from 2 calcium crosslinked alginate disks which were sealed around the edges with GluStitch and formed a bladder for pericardial drug. A catheter was placed into the bladder formed by the two disks and allowed continuous infusion of inotropic drug into the pericardial fluid. This device spread drug over the surface of the heart at a controllable rate of delivery. In another experiment, dobutamine was introduced into the pericardial sac through a catheter without the use of the patch.
In yet another experiment, dobutamine was introduced intravenously.

For another data set, the system named is Sprague Dawley rat. Nature of the data set: Hemodynamic and contractile indices in anesthetized rat, epicardial alginate patch vs IV infusion. Type of data set: in vivo. Conditions: for systemic vascular resistance: FIG. 5. As to the method: A Sprague Dawley rat was anesthetized with pentobarbital and catheters were placed in the right internal jugular vein and right femoral artery for continuous pressure measurement and IV access. An arteriotomy in the right carotid artery allowed passage of a Millar (Houston, Tex.) conductance pressure-volume catheter across the aortic valve and into the left ventricle. This catheter allows measurement of indices of myocardial contractile function. A tracheotomy was performed and the animal ventilated prior to sternotomy and chest retraction.
A pericardial drug releasing platform was made from a calcium crosslinked alginate disk (6.5 mm diameter) and placed on top of the left ventricle. Dobutamine was then applied to the drug release platform for pericardial inotropic treatments. […]

Data set [2] is described as follows: Plasma dobutamine levels in arterial blood samples of swine. Type of data set: in vivo. Particulars: FIG. 10. The source says:
Arterial blood samples were taken for measurement of plasma dobutamine levels.

For data set [3] the following is noted: intravenous infusion systems; cited from earlier work.
Setting [4] is: patch delivery, PV loop, FIG. 4.
[5] abbreviates: patch release 1 mcg/kg/min compared with IV infusion at the same dosage, FIG. 3.
Setting [6] is: patch release compared with intravenous infusion, FIG. 6.

As to `CC(CCc1ccc(O)cc1)NCCc1ccc(O)c(O)c1` (centres unmarked) [dobutamine], the myocardial dobutamine concentration entry in data set [1] is reported as “orders of magnitude higher”. Further, the “time response of increasing contractility” value with Hannaford swine (after pericardial application, FIG. 8) was “very rapid”. In addition, the “stroke work per stroke volume” value in the data set on Hannaford swine (patch 0.5 mcg/kg/min compared with IV infusion at the same dosage, FIG. 9) was “less”. The “myocardial contractility, dose response” value in the data set on Hannaford swine (patch release compared with release via catheter in the pericardial sac, FIG. 7) is “greater increase”. In addition, in the data set with Hannaford swine (patch release, FIG. 8), the cardiac output entry was “increased”, the contractility result was “increased” and the systemic vascular resistance result was “without significantly reducing”. Further, in the data set on Sprague Dawley rat (intravenous infusion 1 mcg/kg/min), the systemic vascular resistance entry is reported as “excessively decreases”. In the data set on Sprague Dawley rat (patch 1 mcg/kg/min compared with IV infusion at the same dosage, FIG. 4), the cardiac work efficiency result is “more efficient cardiac work”. In the data set on Sprague Dawley rat (patch 1 mcg/kg/min compared with IV infusion at the same dosage, pressure volume loops, FIG. 4), the ventricular stroke volume entry was “greater ventricular stroke volume”. In addition, in the data set with Sprague Dawley rat (setting [4]), the “LV pressure during ejection” value is listed as “no increase”, the diastolic filling entry was “minimal change” and the end-systolic volume result is “marked reduction”. In the data set with Sprague Dawley rat (patch delivery, area inside PV loop, FIG. 4), the “myocardial stroke work (SW)” value is “minimal increase”. For the same compound, in the data set with Sprague Dawley rat (setting [5]), the “contractility of myocardial tissue (max dP/dt)” value was “greater increase in contractility” and the “duration of the increase in contractility” value is recorded as “sustained for a longer period of time”. For the same compound, the systemic vascular resistance entry in the data set with Sprague Dawley rat (patch release 1 mcg/kg/min) is reported as “only minimal effect”. Also, in the data set on Sprague Dawley rat (setting [6]), the “increase in contractility relative to dose” value is listed as “larger increase in contractility with a smaller dose”; the “potency and effect on contractility” value was “more potent and efficacious”. The plasma concentration entry in data set [2] (intravenous infusion compared with patch release) was “substantially higher”. Besides, the plasma drug levels entry in data set [2] (pericardial (patch) delivery compared with IV delivery) is “lower”. For the same compound, the “dosage typically required for therapeutic effect on contractility” value in data set [3] is “at least 2 mcg/kg/min”.

For the compound `C[C@@H]1CC(=O)NN=C1c1ccc(NN=C(C#N)C#N)cc1` [levosimendan], the “dosage typically required for therapeutic effect on contractility” value in data set [3] is at least 0.1 µg/kg/min.
